Experimental data taken from paper PMC3442999, “Characterization of purified and Xerogel immobilized Novel Lignin Peroxidase produced from Trametes versicolor IBL-04 using solid state medium of Corncobs” (BMC Biotechnology, 2012).

Tested on: T1, LiP (lignin peroxidase) of T. versicolor IBL-04
T1 construct: native secreted enzyme purified from solid-state culture on corncobs (ammonium sulfate, Sephadex G-100, DEAE-cellulose); monomer, 30 kDa on SDS and native PAGE
Test: veratryl alcohol oxidation to veratraldehyde at […] nm, Lineweaver-Burk
Format: biochemical, Trametes versicolor
Conditions: free enzyme; H2O2 co-substrate; incubated 15 min at 25°C in citrate phosphate pH 6.0 before assay; 100-1000 μM substrate

## COc1ccc(CO)cc1OC [veratryl alcohol]
  Km: 70 µM
